# Patent US20210000966A1, “HSP90-TARGETING CONJUGATES AND FORMULATIONS THEREOF” (TARVEDA THERAPEUTICS, INC., priority 2017, published 2021)
# Where two headings read alike, the source gives them in different places.
# What was measured:
# [1] = Caco-2 cell monolayer permeability assay; format: in vitro ADME, human; conditions: human
# From the text: (§1) In order to test the ability of the payloads and/or conjugates to enter cells, a cell monolayer assay was utilized employing Caco-2 cells (a human epithelial colorectal adenocarcinoma cell line).
# (§2) Experimental Procedure: Caco-2 cells grown in tissue culture flasks are trypsinized, suspended in medium, and the suspensions were applied to wells of a Millipore 96 well Caco-2 plate. The cells are allowed to grow and differentiate for three weeks, feeding at 2-day intervals. For Apical to Basolateral (A→B) permeability, the test agent is added to the apical (A) side and amount of permeation is determined on the basolateral (B) side; for Basolateral to Apical (B→A) permeability, the test agent is added to the B side and the amount of permeation is determine on the A side.
# Caco-2 cells = test: Caco-2 cell monolayer permeability assay; format: in vitro ADME, human; conditions: Caco-2
# From the text: as §1, §2
# [2] = tested on: BT474 (breast cancer) tumor xenograft; test: BT474 breast cancer xenograft; format: in vivo, mice; conditions: Conjugate 38 IV 25 mg/kg vs Copanlisib 6 mg/kg, FIG. 3C
# Description: (§3) PIK3A mutations occur in about 15% to 30% of breast, endometrial and colon cancers. In additional to LS174t model, other xenograft models harboring common PIK3CA mutations were chosen for testing. In one study, mice bearing SKOV3 (ovarian cancer) tumor xenograft were treated with IV dose of Conjugate 38 at 25 mg/kg and Copanlisib at 6 mg/kg. Doses were selected based on the maximum tolerated dose. In another study, mice bearing BT474 (breast cancer) tumor xenograft were treated with IV dose of Conjugate 38 at 25 mg/kg and Copanlisib at 6 mg/kg.
# pAKT (S473) = test: LS174t tumor xenograft, pharmacodynamic response; format: in vivo, mice; conditions: through the course of 48 h, FIG. 5, in words
# [3] = tested on: SKOV3 (ovarian cancer) tumor xenograft; test: SKOV3 ovarian cancer xenograft; format: in vivo, mice; conditions: Conjugate 38 IV 25 mg/kg vs Copanlisib 6 mg/kg, FIG. 3B
# Description: as §3
# [4] = tested on: H1975 cells (non-small cell lung cancer) xenograft; test: H1975 xenograft study; format: in vivo, mice; conditions: 12.5 mg/kg twice a week intravenously, Day 19, compared to vehicle control
# Description: Female athymic nude mice were implanted with 5×10^6 H1975 cells (non-small cell lung cancer) per mouse in the right hind flank. Once tumors reached a volume of 50 mm^3 to 150 mm^3 they were randomized into two groups of ten to obtain a group average starting tumor volume of 114.4 mm^3. Mice were then treated with either a vehicle control or 12.5 mg/kg of Conjugate 38. All dosing was carried out twice a week intravenously for three weeks, with five total doses being administered. Tumor volumes of the mice were measured. Final study measurements were taken on Day 19, at which point the study was terminated due to vehicle control tumor volumes approaching IACUC limits.
# [5] = format: in vivo, mice; conditions: LS174t xenograft, FIG. 4
# Description: Accumulation and retention of Conjugate 38 was tested in this tumor xenograft model.
# NCI-H460 cells = test: NCI-H460 tumor cell cytotoxicity assay (CellTiter-Glo); format: cell-based; conditions: Homo sapiens, NCI-H460, 48 h
# Description: NCI-H460 cells (non-small cell lung cancer) were plated at 500 cells per well and incubated for 20-24 hrs at 37° C. at 5% CO2. Post cell incubation, compounds were reconstituted in DMSO to a stock concentration of 200 uM. A compound plate was then prepared containing a 10 point dilution in RPMI+10% FBS+0.25% DMSO. 5 uL of the dilution was then added for a final working concentration range of 10 uM to 0.0005 uM. Compounds and cells were then incubated for 48 hrs. Cells were then analyzed by CellTiter-Glo for ATP levels and percent inhibition calculated.
# [6] = Glucose levels post dosing in mice; format: in vivo; conditions: FIG. 7, in words
# From the text: In an in vivo study in mice, glucose levels were monitored post PI3K inhibitor (Copanlisib) and Conjugate 38 dosing. […] Therefore, conjugating a PI3K enzyme inhibitor payload to a HSP90 targeting ligand reduced the normal tissue activity of glucose increase in mice.
# human total EbB2/Her2 = test: HER2 degradation assay (ELISA) in BT474 cells; format: cell-based; conditions: BT-474, 16 hrs, read-out: Her2 Degradation IC50 Abs IC50
# Description: BT474 (breast cancer) cells were plated at 12,000 cells per well and incubated for 20-24 hrs at 37° C. at 5% CO2. Post cell incubation, compounds were reconstituted in DMSO to a stock concentration of 5 mM. A compound plate was then prepared containing a 10 point dilution in DMSO. 2 uL of these dilutions were then added to the cells for a final working concentration of 5 uM to 0.0003 uM. Compounds and cells were incubated for 16 hrs. Media was then removed, cells washed, lysed, and analyzed for human total EbB2/Her2 levels by ELISA.
# [7] = tested on: H460 lung cancer xenograft; test: H460 lung cancer xenograft model; format: in vivo, mice; conditions: FIG. 2, in words
# H460 mouse tumor PK = format: in vivo, mice; conditions: for concentration at 96 h / concentration at 144 h: mouse, in vivo, 25 mg/kg, 25 mg/kg IV, read-out: Conjugate 38 Conc. in H460 Mouse Tumor
# Description: Conjugate and unconjugated payload accumulation at 96 and 144 h in H460 tumor-bearing mice. Conjugate 38 was dosed at 25 mg/kg intravenously.
# [8] = tested on: LS174t colon tumor xenograft; test: LS174t colon tumor xenograft model, efficacy; format: in vivo, mice; conditions: FIG. 3A, in words
# PI3K = test: Cell free PI3K enzyme assay; format: biochemical; conditions: FIG. 6, in words
# From the text: Therefore, conjugating a PI3K enzyme inhibitor payload to a HSP90 targeting ligand masked the PI3K enzyme inhibition.
# MEK = MEK activity (FIG. 8C); format: biochemical; conditions: in words
# From the text: The activity of the respective payload is blocked until the linker moiety gets cleaved in the tumor and releases active unblocked payload. Through the HSP90 platform, toxicity is mitigated by masking the payload's active site until it can be delivered to the tumor.
# FIG. 8A compares the activity of Conjugate 45 and its payload (talazoparib). FIG. 8B compares the activity of Conjugate 46 and its payload (ulixertinib). FIG. 8C compares the activity of Conjugate 47 and its payload TAK-733. The data further support that attaching a payload to a HSP90 binding ligand blocks the target activity of the payload. The HSP90 bindings of the HSP90 ligands are not affected.
smiles,measurement,setting,value
COc1c(OCCCN2CCNCC2)ccc2c1N=C(NC(=O)c1cnc(N)nc1)N1CCN=C21 [Compound 27A],Papp A→B,"[1]; Caco-2, A to B direction",0.0032 ×10⁻⁶ cm/s
same,Papp B→A,"[1]; Caco-2, B to A direction",0.0162 ×10⁻⁶ cm/s
same,permeability in words,Caco-2 cells,very low permeability
CCNC(=O)c1nnc(-c2cc(C(C)C)c(O)cc2O)n1-c1ccc(CN2CCN(C(=O)Cc3ccc(OC(=O)N4CCN(CCCOc5ccc6c(c5OC)N=C(NC(=O)c5cnc(N)nc5)N5CCN=C65)CC4)cc3)CC2)cc1 [Compound 38],tumor growth inhibition compared to Copanlisib,[2],statistically significant increase in tumor growth inhibition
same,inhibition of PI3K shown by pAKT (S473),pAKT (S473),significant reduction of pAKT (S473)
same,tumor growth inhibition compared to Copanlisib,[3],statistically significant increase in tumor growth inhibition
same,tumor growth inhibition,[4],70.8%
same,time remaining in the tumor xenograft and releasing active PI3K inhibitor payload,[5],> 96 h
same,IC50,"NCI-H460 cells; n = 1, read-out: H460 in vitro cytotoxicity",8.2 nM
same,IC50,"NCI-H460 cells; n = 2, read-out: H460 in vitro cytotoxicity",7.4 nM
same,glucose concentration after dosing,[6],lower glucose concentrations than mice treated with the PI3K inhibitor payload
same,IC50,human total EbB2/Her2,39 nM
same,efficacy (tumor volumes) in H460 xenograft,[7],superior to Copanlisib alone or ganetespib alone
same,accumulation and retention in xenograft tumor tissue,"H460 mouse tumor PK; H460 tumor-bearing mice, in words",accumulated and was retained in xenograph tumor tissue
same,concentration at 96 h,H460 mouse tumor PK; Animal ID 1,6.2 µM
same,concentration at 96 h,H460 mouse tumor PK; Animal ID 2,7.6 µM
same,concentration at 96 h,H460 mouse tumor PK; Animal ID 3,6.25 µM
same,concentration at 96 h,H460 mouse tumor PK; Mean,6.68 µM
same,concentration at 144 h,H460 mouse tumor PK; Animal ID 1,0.84 µM
same,concentration at 144 h,H460 mouse tumor PK; Animal ID 2,3.61 µM
same,concentration at 144 h,H460 mouse tumor PK; Animal ID 3,1.57 µM
same,concentration at 144 h,H460 mouse tumor PK; Mean,2.01 µM
same,efficacy (tumor growth inhibition) in LS174t xenograft,[8],significant tumor growth inhibition
same,efficacy compared with combination therapy of copanlisib and ganetespib,[8]; LS174t xenograft,worked much better than a combination therapy comprising copanlisib and ganetespib
same,PI3K enzyme inhibition compared with payload,PI3K,much less active than its PI3K enzyme inhibitor payload
CCNC(=O)c1nnc(-c2cc(C(C)C)c(O)cc2O)n1-c1ccc(N(C)C2CCN(C(=O)CCC(=O)OC[C@H](O)Cn3cnc4c(c(Nc5ccc(I)cc5F)c(F)c(=O)n4C)c3=O)CC2)cc1 [Conjugate 47],MEK activity compared with payload TAK-733,MEK,lower than its payload
